In PMC4200852, “Metabolism of Cryptic Peptides Derived from Neuropeptide FF Precursors: The Involvement of Insulin-Degrading Enzyme” (International Journal of Molecular Sciences, 2014):
“Also recorded” adds a separate entry of the source. Blank lines part the entries; values can stand above or below the molecule they belong to. Ends that are not written are not given here.

Legend:
[1] = test system: IDE; details: statement without data or reference; cited from earlier work
[2] = test system: IDE, His-Tag, rat, recombinant; assay: Proteolysis by insulin-degrading enzyme (IDE) in vitro, ESI-MS; type: in vitro ADME; details: 37 °C; for stability without IDE: no IDE
Excerpt: Other peaks assigned to the same fragments with the addition of Na^+ and K^+ are not labelled for simplicity.
IDE, His-Tag, rat, recombinant, from Spodoptera frugiperda, was purchased from Calbiochem (Milan, Italy), and its activity was verified by carrying out enzymatic digestion of insulin solutions according to the experimental procedure previously reported. Methanol (MeOH), formic acid (FA), Tris–HCl buffer, phosphate buffered saline (PBS) buffer and all chemicals used were purchased from Sigma–Aldrich. ZIPTIP C18 was purchased from Millipore (Milan, Italy). IDE enzymatic assays were carried out by incubating the enzyme solution (0.4 μM) at 37 °C with the peptide solution at the indicated concentration. After purification with ZIPTIP C18, 3 μL of the resulting solution were mixed with 50 μL of water and 50 μL of MeOH and injected into the mass spectrometer at 5 μL/min. ESI-MS experiments were performed by using a Finnigan LCQ DECA XP PLUS ion trap spectrometer operating in the positive ion mode and equipped with an orthogonal ESI source (Thermo Electron Corporation, Madison, WI, USA). Sample solutions were injected into the ion source using nitrogen as the drying gas. The mass spectrometer operated with a capillary voltage of 46 V and capillary a temperature of 250 °C, while the spray voltage was 4.3 kV. MS/MS data were interpreted by using the “Molecular Weight Calculator” software by Matthew Monroe freely available on the web.

[3] = NPNA metabolism by enzyme fractions separated from rat brain cortex homogenate, ESI-MS; type: in vitro ADME, male Wistar rats; details: for peptide fragment (sequence) formed: 120 min
Procedure: Brain cortices were rapidly removed from the male Wistar rats (150–200 g) and frozen immediately on dry ice. Tissues were kept at −80 °C until assayed. Brain was homogenized in an ice-cold 20 mM Tris–HCl buffer, pH 7.5, and diluted 1:6. The obtained homogenate was centrifuged twice at 14,000× g for 10 min at 4 °C.
Enzymes present in the rat brain homogenate were separated on the ion-exchange column Econo-Pac High Q (resin volume: 5 mL; Bio-Rad, Berkeley, CA, USA). Gradient separation was performed by the HPLC system Prominence LC-20 AD with a Photodiode Array Detector SPD-M20A (Shimadzu, Tokyo, Japan). The sample volume loaded on the column was 1 mL. The mobile phase consisted of 20 mM Tris–HCl buffer, pH 7.5, and a gradient of NaCl from 0 to 500 mM in 60 min was used. The total flow rate was 1 mL/min. One-point-five-milliliter fractions were collected during the separation and stored in −80 °C prior to further experiments.
Enzyme assays were performed in 0.5-mL Eppendorf tubes. Each homogenized brain fraction was diluted 1:5 with 20 mM Tris–HCl buffer, pH 7.5, and the reaction was initiated by the addition of 5 μg of NPNA and continued by mixing at 37 °C for 120 min (or for 300 min for preparing time course metabolic process). Five-microliter aliquots were taken from the incubation mixture, acidified by 30% MeOH with 0.1% FA and analyzed by ESI-MS (Bruker Esquire 3000) equipped with an autosampler (Famos, Thermo Scientific, earlier LC-Packings, Bremen, Germany). MS/MS analysis was performed to confirm the sequence of the released fragments. Quantitation of the enzyme activity was performed by integration of the peak area of formed products on the mass chromatogram. The samples were incubated with and without amastatin, an aminopeptidase inhibitor.

[4] = molecular target: T1, IDE (Rattus norvegicus, UniProt P35559); assay: Surface Plasmon Resonance (SPR) OneStep binding to immobilized IDE; details: comparison among the peptides tested
T1 construct: His-Tag; purchased Calbiochem (Milan, Italy); host or cells: Spodoptera frugiperda
T1 sequence (P35559 1-1019): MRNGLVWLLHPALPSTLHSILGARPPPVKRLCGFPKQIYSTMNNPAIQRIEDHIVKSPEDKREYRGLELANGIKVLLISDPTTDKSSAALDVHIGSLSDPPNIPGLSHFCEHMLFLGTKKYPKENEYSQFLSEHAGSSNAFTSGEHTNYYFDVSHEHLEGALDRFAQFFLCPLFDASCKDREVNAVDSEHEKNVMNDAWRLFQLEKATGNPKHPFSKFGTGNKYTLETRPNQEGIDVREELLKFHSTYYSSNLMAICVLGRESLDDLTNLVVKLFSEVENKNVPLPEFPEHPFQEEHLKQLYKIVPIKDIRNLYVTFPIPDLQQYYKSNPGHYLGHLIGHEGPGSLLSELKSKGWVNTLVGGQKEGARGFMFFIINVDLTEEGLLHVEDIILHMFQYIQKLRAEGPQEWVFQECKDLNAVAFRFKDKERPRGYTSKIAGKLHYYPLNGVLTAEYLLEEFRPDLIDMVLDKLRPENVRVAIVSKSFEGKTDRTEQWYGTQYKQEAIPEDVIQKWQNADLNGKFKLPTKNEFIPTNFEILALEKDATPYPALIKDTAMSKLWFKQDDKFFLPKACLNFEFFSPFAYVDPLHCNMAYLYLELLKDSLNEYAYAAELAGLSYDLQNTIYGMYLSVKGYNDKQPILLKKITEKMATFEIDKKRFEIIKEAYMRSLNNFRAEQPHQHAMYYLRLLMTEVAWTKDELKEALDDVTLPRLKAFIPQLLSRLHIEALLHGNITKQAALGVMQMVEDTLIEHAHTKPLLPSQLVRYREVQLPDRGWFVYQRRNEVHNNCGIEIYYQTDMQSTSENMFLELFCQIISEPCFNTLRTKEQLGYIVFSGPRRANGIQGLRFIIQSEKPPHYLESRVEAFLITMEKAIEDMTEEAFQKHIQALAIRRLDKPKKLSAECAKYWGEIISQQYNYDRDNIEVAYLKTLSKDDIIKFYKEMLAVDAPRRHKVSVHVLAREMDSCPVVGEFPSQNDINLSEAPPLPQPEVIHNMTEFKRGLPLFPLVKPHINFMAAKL

[5] = NPPW 1–25 degradation in rat brain homogenate, with and without amastatin, ESI-MS; type: in vitro ADME; details: NPPW 1–25, rat brain homogenate
Procedure: We then tested the degradation of NPPW 1–25 peptide after incubation with rat brain homogenate, with and without the addition of amastatin. The latter was added to exclude the activity of aminopeptidases that are abundant in CNS. Such activity is responsible, among others, for the inactivation of opioid peptides, by truncation of the N-terminal Tyr, thus preventing binding to opioid receptors. […] In Table 2, the assignment of the peptide fragments detected is reported, while in Figure 4, a quantitative detection of their amounts at different incubation times is also shown. […] A further proof of this thesis could be obtained by applying selective IDE inhibitors that could become more easily available in the near future.
Brain cortices were rapidly removed from the male Wistar rats (150–200 g) and frozen immediately on dry ice. Tissues were kept at −80 °C until assayed. Brain was homogenized in an ice-cold 20 mM Tris–HCl buffer, pH 7.5, and diluted 1:6. […]
Enzyme assays were performed in 0.5-mL Eppendorf tubes. […] Five-microliter aliquots were taken from the incubation mixture, acidified by 30% MeOH with 0.1% FA and analyzed by ESI-MS (Bruker Esquire 3000) equipped with an autosampler (Famos, Thermo Scientific, earlier LC-Packings, Bremen, Germany). […] Quantitation of the enzyme activity was performed by integration of the peak area of formed products on the mass chromatogram. […]

[6] = molecular target: T2, Insulin-degrading enzyme (IDE), His-Tag, rat, recombinant (rat, UniProt P35559 1-1019); assay: SPR; SensiQ Pioneer, OneStep approach; IDE immobilised by amine coupling on a COOH5 chip; peptides in solution (initial concentrations NPSA 74 uM, NPNA 74 uM, NPPW 150 uM); 0.01 M HEPES, 0.15 M NaCl, pH 7.4; fitted with Qdat, one binding site model for NPNA, two binding site model for NPSA and NPPW; details: both partners purified
T2 construct: Insulin-degrading enzyme, rat, recombinant with His-Tag; Bought protein; immobilised by amine coupling for SPR; source: bought: Calbiochem (recombinant, from Spodoptera frugiperda)
T2 sequence (looked up): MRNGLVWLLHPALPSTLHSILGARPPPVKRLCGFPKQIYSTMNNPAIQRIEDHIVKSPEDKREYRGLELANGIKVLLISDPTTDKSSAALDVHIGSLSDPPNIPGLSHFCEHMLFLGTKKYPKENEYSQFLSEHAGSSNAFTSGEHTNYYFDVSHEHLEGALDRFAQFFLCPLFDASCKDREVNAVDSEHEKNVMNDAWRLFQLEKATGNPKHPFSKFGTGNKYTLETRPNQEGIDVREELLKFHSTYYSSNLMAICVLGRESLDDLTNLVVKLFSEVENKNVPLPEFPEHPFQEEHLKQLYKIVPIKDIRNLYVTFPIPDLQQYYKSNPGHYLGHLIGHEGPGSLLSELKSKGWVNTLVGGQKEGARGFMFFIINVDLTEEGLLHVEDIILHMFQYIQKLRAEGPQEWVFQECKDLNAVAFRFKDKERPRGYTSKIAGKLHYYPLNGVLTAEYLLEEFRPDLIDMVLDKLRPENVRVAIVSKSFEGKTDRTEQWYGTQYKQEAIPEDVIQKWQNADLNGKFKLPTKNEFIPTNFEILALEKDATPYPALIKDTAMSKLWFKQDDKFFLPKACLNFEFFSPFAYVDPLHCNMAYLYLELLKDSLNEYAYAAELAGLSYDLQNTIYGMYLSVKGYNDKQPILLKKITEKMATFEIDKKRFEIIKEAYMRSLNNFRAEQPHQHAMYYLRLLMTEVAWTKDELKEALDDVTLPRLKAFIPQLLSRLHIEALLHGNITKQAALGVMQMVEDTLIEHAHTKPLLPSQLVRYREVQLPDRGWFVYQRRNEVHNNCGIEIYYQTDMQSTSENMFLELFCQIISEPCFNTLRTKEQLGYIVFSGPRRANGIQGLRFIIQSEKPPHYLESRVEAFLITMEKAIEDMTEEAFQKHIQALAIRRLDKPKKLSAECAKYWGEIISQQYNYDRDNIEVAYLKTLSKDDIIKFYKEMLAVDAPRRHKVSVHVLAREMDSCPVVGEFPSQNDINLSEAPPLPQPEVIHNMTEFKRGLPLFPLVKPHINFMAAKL

Molecule: CC(C)C[C@@H](N)[C@H](O)C(=O)N[C@H](C(=O)N[C@H](C(=O)N[C@@H](CC(=O)O)C(=O)O)C(C)C)C(C)C [amastatin, reference compound]
inhibition of IDE [1]: not inhibited by amastatin

Molecule: NAWGPWSKEQLSPQA [NPNA, NAWGPWSKEQLSPQA]
degradation by IDE ([2]; NPNA incubated with IDE, up to 24 h, ESI-MS): not cleaved by IDE; also recorded: IDE is not able to degrade NPNA; also recorded: not degraded by IDE; also recorded: does not produce any NPNA fragments at all incubation times investigated
time of highest amount of main product 1–11 ([3]; Fraction 23, 37 °C, pH 7.5): 4 h
peptide fragment (sequence) formed ([3]; Fraction 23 from Econo-Pac High Q, 5 μg NPNA, 20 mM Tris–HCl pH 7.5, 37 °C, ESI-MS): SPQA
main product, time course ([3]; Fraction 26, 37 °C, pH 7.5): SKEQL
peptide fragment (sequence) formed ([3]; Fraction 26 from Econo-Pac High Q, 5 μg NPNA, 20 mM Tris–HCl pH 7.5, 37 °C, ESI-MS): NAW and GPW and SKEQL and SPQA
cleavage position by brain cortex proteases ([3]; rat brain cortex fractions, 20 mM Tris–HCl pH 7.5, 37 °C, ESI-MS): mainly at the carboxyl side of the tryptophan and leucine; also recorded: mainly at the carboxyl side of tryptophan and leucine
time of highest product intensity ([3]; time course, rat brain cortex fractions, 5 μg NPNA, 20 mM Tris–HCl pH 7.5, 37 °C, ESI-MS): 4 h

Molecule: PQRFGRNAWGPWSKEQLSPQAREFW [NPPW 1–25]
relative KD for both binding sites [4]: lowest KD values for both binding sites
cleavage sites by IDE ([2]; 50 μM NPPW 1–25, 8 nM IDE, PBS, 8 h, ESI-MS): Gly5–Arg6, Ala8–Trp9, Gly10–Pro11 and Gln20–Ala21
fragments produced by IDE ([2]; 50 μM NPPW 1–25, 8 nM IDE, PBS, 8 h, ESI-MS, MS/MS): WGPWSKEQLSPQ; also recorded: PQRFGRNAWGPWSKEQLSPQ at high abundance
major cleavage site by IDE ([2]; 50 μM NPPW 1–25, 8 nM IDE, PBS, ESI-MS): Gln20–Ala21
stability without IDE ([2]; 50 μM NPPW 1–25, PBS, 8 h, ESI-MS): only the full-length peptide is detected
fragment generated only at longer incubation times with IDE ([2]; NPPW 1–25, more than 2 h, data not shown): PWSKEQLSPQAREFW
most abundant fragment produced by IDE ([2]; NPPW 1–25 with IDE, ESI-MS): PQRFGRNAWGPWSKEQLSPQ
major cleavage site [5]: Gln20–Ala21
most abundant peptide fragment [5]: NPPW 1–20

main cleavage site by IDE ([2]; 50 μM NPSA, 8 nM IDE, PBS, 2 h, ESI-MS): between Trp6 and Ser7
fragments produced by IDE ([2]; 50 μM NPSA, 8 nM IDE, PBS, 2 h, ESI-MS, confirmed by MS/MS): SAWGSW; also recorded: SKEQLNPQA
main cleavage site by IDE ([2]; 50 μM NPSA, 8 nM IDE, PBS, 2 h, ESI-MS, listed as NPSA 1–15): Trp6–Ser7
stability without IDE ([2]; 50 μM NPSA, PBS, 2 h, ESI-MS): only the full-length peptide is detected
time to complete degradation by IDE ([2]; (IDE) = 1/6000 (NPSA), disappearance of NPSA molecular peak, 50 μM NPSA, PBS, ESI-MS): two
Molecule: SAWGSWSKEQLNPQA [NPSA, SAWGSWSKEQLNPQA]

Kd [6]: 3.98 mM
B1: NPNA (NAWGPWSKEQLSPQA {1-15}) (peptide)
peptide: NAWGPWSKEQLSPQA
notes: NPNA, residues 85-99 of rat pro-NPFFA (neuropeptide FF precursor); also called NPNA 1-15; source: synthetic peptide (Fmoc solid phase synthesis, purified by HPLC)
